“And” between values parts separate entries of the source, which are not always exact repeats. Equal entries are not always repeated.
Tests used:
[1] = tested on: fleas (Ctenocephalides felis); assay: Dose response study on canines against fleas, Indoxacarb spot-on (Example 1); type: in vivo; conditions: for reduction of flea infestation: dogs
Experimental: A non-blinded prospective longitudinal artificial infestation parasite efficacy pen study was conducted with a fully randomized design (ranking and blocking based on breed and pre-treatment flea count). There were 5 treatment groups of 6 dogs each, and an untreated control group.
Thirty-three (33) adult dogs (Labrador Retrievers and Jack Russell Terriers) were inducted, clinically examined, weighed, identified and allocated to study pens on Day −7. Each dog was artificially infested with 100 fleas (Ctenocephalides felis) on Day −5 and again on Day −2. On Day −1 flea thumb counts were performed on all dogs and 30 dogs were selected for inclusion. These dogs were randomly allocated to 5 similar groups of 6 animals on the basis of breed and flea counts, and groups were allocated to study pens. On Day 0, Groups B, C, D and E were treated with a local topical administration formulation containing Indoxacarb (DPX-K128) dissolved in a mixture of Dimethyl Isosorbide (DMI) and Propylene Glycol Monomethyl Ether (90% Dimethyl Isosorbide (DMI) and 10% Propylene Glycol Monomethyl Ether by volume) to form a total concentration of 75, 100, 125 or 150 g/L of Indoxacarb (DPX-K128). The starting material to prepare the formulation was a mixture of DPX-K128-and DPX-KN127 (the R-isomer of Formula 1) and contained 70.43% Indoxacarb (DPX-K128). […] The formulation was administered via spot-on application (i.e. applying in liquid form to less than or equal to 10% of the surface area of the animal) to the dorsal midline at the rate of 0.1 mL/1 kg. Group A remained untreated as controls. Group B was dosed at the rate of 7.5 mg/kg; Group C at the rate of 10.0 mg/kg; Group D at the rate of 12.5 mg/kg; and Group E at the rate of 15.0 mg/kg.
Flea thumb counts were performed at 24 hours. Flea comb counts were performed at 48 hours post-treatment and all dogs then treated with Capstar® oral tablets (Nitenpyram, Novartis Animal Health) to remove all fleas prior to the next infestation. Animals were re-infested with 100 adult fleas at 7, 14, 21 and 28 days post-treatment. At 24 hours after each infestation, flea comb counts were performed followed by Capstar treatment.

fleas = assay: Effect of washing on persistency, flea comb count on dogs (Example 2); type: in vivo, Ctenocephalides felis; conditions: for Group Average Count: Day 44; for Flea Count: individual dog, Day 44, infested with 100 fleas Day 43
Experimental: At completion of the study described in Experiment 1 above, a further washing study was conducted using the six dogs in Group E for a further two weeks.
During the two-week period, four of the six dogs from Group E were washed twice weekly in a non-insecticidal hydrobath, while the other two dogs from Group E were not washed and acted as controls. On Day 43 post-treatment, the 6 dogs were infested with 100 fleas and then had their ability to retain a flea infestation assessed on Day 44 by a flea comb count.

## COC(=O)N(C(=O)N1CO[C@@]2(C(=O)OC)Cc3cc(Cl)ccc3C2=N1)c1ccc(OC(F)(F)F)cc1 [Indoxacarb, (S)-methyl 7-chloro-2,5-dihydro-2-[[(methoxycarbonyl)[4-(trifluoromethoxy)phenyl]amino]carbonyl]indeno[1,2-e][1,3,4]oxadiazine-4a(3H)-carboxylate]
[1]; all four groups (7.5-15.0 mg/kg), from the 48 hour count until 29 days post-treatment
  persistent efficacy, reduction: ≥ 99%
[1]; spot-on 7.5 mg/kg (Group B), 24 hrs post-treatment
  reduction of flea infestation: 97.9%
[1]; spot-on 7.5 mg/kg (Group B), 48 hrs post-treatment
  reduction of flea infestation: 99.4%
[1]; spot-on 10.0 mg/kg (Group C), 24 hrs post-treatment
  reduction of flea infestation: 97.9%
[1]; spot-on 10.0 mg/kg (Group C), 48 hrs post-treatment
  reduction of flea infestation: 100%
[1]; spot-on 12.5 mg/kg (Group D), 24 hrs post-treatment
  reduction of flea infestation: 99.0%
[1]; spot-on 12.5 mg/kg (Group D), 48 hrs post-treatment
  reduction of flea infestation: 100%
[1]; spot-on 15.0 mg/kg (Group E), 24 hrs post-treatment
  reduction of flea infestation: 100%
[1]; spot-on 15.0 mg/kg (Group E), 48 hrs post-treatment
  reduction of flea infestation: 99.4%
fleas; 44 days, after 4 shampoo hydrobath washes
  persistence after washing: excellent persistence
fleas; Treated Non-Wash
  Group Average Count: 0
fleas; Treated Wash
  Group Average Count: 3
fleas; Treated Non-Wash (15.0 mg/kg)
  Flea Count: 0
fleas; Treated Wash (15.0 mg/kg, washed twice weekly for two weeks)
  Flea Count: 4 and 5 and 1 and 2

— patent US9968617B2, “Local topical administration formulations containing indoxacarb” (E.I. du Pont de Nemours and Company, priority 2006, dated 2018)
